A word on the Kd: it is a measure of binding affinity in units of concentration. Low readings indicate a tighter complex, high ones a looser complex. As a reminder, the IC50 is the concentration that inhibits the measured activity by half. Higher therefore signals weaker potency.

Structures are written as SMILES. Where a chain is given by its changes, count along the chain named.

In assay [1] the target is T1, Mps1 kinase domain (Homo sapiens, UniProt P33981, C604Y).
T1 sequence (P33981 519-808 C604Y): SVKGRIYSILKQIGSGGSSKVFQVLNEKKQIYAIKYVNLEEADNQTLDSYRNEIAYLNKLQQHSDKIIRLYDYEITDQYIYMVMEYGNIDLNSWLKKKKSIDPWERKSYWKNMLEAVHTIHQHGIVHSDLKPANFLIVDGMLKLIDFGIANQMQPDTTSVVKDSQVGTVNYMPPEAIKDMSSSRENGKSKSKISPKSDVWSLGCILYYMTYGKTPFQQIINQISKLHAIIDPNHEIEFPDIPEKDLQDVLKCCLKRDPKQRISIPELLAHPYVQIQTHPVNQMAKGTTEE
The experiment in a line: microscale thermophoresis, DY-547P1 labelled protein. The class given is binding. On the technique in general: Microscale thermophoresis detects binding through changes in fluorescence in a small temperature gradient.

The target in assay [2] is T2, Mps1 kinase domain (Homo sapiens, UniProt P33981).
T2 sequence (P33981 519-808): T1 sequence (P33981 519-808 C604Y) with Y86C
Described as above. It is filed as binding.

The target of assay [3] is T3, Mps1 kinase domain (Homo sapiens, UniProt P33981, C604W).
T3 sequence (P33981 519-808 C604W): T1 sequence (P33981 519-808 C604Y) with Y86W
The description is as above. It is filed as binding.

In assay [4] the target is T4, GST-Mps1 full length (Homo sapiens, UniProt P33981, C604W).
T4 sequence (P33981 1-857 C604W): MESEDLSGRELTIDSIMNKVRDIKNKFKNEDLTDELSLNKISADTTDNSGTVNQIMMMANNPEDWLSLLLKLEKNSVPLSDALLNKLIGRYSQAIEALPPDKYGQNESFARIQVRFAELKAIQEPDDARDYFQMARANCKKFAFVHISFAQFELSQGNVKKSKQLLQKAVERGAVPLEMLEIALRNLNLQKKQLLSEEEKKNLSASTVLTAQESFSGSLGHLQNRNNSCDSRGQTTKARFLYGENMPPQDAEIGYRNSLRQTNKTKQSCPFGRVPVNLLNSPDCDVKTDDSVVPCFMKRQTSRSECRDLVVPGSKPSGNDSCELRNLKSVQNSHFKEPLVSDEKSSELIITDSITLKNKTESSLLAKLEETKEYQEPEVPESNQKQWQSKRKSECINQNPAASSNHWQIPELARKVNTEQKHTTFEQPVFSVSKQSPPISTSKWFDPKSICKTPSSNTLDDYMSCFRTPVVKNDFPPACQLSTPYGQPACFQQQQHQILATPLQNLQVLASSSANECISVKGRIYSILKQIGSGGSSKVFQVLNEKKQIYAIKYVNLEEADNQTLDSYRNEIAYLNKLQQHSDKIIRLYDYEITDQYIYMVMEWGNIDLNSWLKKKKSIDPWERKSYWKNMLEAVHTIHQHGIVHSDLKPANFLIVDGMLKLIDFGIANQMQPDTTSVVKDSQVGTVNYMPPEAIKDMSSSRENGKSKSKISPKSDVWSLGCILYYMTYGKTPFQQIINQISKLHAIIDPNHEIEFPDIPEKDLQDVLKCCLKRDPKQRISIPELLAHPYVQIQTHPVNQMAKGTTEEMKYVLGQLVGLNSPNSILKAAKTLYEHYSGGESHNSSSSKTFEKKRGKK
The experiment in a line: biochemical.

Assay [5] has as its target T5, GST-Mps1 full length (Homo sapiens, UniProt P33981, C604Y).
T5 sequence (P33981 1-857 C604Y): T4 sequence (P33981 1-857 C604W) with W604Y
In words: biochemical.

Assay [6] concerns the target T6, GST-Mps1 full length (Homo sapiens, UniProt P33981).
T6 sequence (P33981 1-857): T4 sequence (P33981 1-857 C604W) with W604C
In words: biochemical.

For the compound `CCc1cccc(CC)c1NC(=O)c1nn(C)c2c1CCc1cnc(Nc3ccc(N4CCN(C)CC4)cc3OC)nc1-2` [Cpd-5, N-(2,6-diethylphenyl)-8-((2-methoxy-4-(4-methylpiperazin-1-yl)phenyl)amino)-1-methyl-4,5-dihydro-1H-pyrazolo[4,3-h]quinazoline-3-carboxamide], the results for the Kd on Mps1 kinase domain [1], on Mps1 kinase domain [2] and on Mps1 kinase domain [3] were 471 ± 50 nM, 1.6 ± 0.2 nM and 349 ± 81 nM, respectively. Besides, the IC50 stood at 19 ± 1 nM against GST-Mps1 full length [4], 170 ± 30 nM at GST-Mps1 full length [5] and 9.2 ± 1.6 nM against GST-Mps1 full length [6].

The values are drawn from article doi:10.1101/112086v2 (biorxiv, 2017).
